Values of other authors, collected in PMC6008299, “Impact of race on dose selection of molecular-targeted agents in early-phase oncology trials” (British Journal of Cancer, 2018).
Where two headings read alike, the source gives them in different places. Marks after values point to notes of the source that are not given here.

How the values were obtained:
[1] = test system: patients with solid tumours; set-up: method as in PMID 15955900; conditions: recommended phase 2 dose; ref [11]–[44]; cited from earlier work
[2] = Asian, at the MTD, ref not given, cited from earlier work
[3] = test system: patients with solid tumours; conditions: dose at which PK is compared; ref not given; cited from earlier work
[4] = cited from earlier work
[5] = test system: patients with solid tumours; set-up: method as in PMID 15955900; conditions: recommended phase 2 dose; ref [11]–[44]; cited from earlier work; remark: listed apart in the source
[6] = at the MTD, Day 1, ref not given
[7] = at the MTD, Day 28, ref not given
[8] = at the MTD, Day 15, ref not given
[9] = at the MTD, Day 8, ref not given
[10] = at the MTD, Day 23 or 24, ref not given
[11] = at the MTD, Day 21, ref not given

CN(C)C/C=C/C(=O)Nc1cc2c(Nc3ccc(F)c(Cl)c3)ncnc2cc1O[C@H]1CCOC1 [Afatinib]
RP2D (Japan) [1]: 50 mg QD | AUC0-24 ([2]; Day 1): 539 ng·h/mL | T1/2 ([2]; Day 1): 14.8 h | AUC0-24 ([2]; Day 28): 1010 ng·h/mL | T1/2 ([2]; Day 28): 33.5 h | MTD [3]: 50 mg QD | AUC0-∞ ([4]; Caucasian, at the MTD, Day 1 (footnote *), ref not given): 762* ng·h/mL | T1/2 [4, 6]: 21.9 h | Tmax [4, 6]: 5.08 h | AUC0-24 [4, 7]: 598 ng·h/mL | T1/2 [4, 7]: 22.3 h | Tmax [4, 7]: 5.00 h | RP2D (Western) [5]: 50 mg QD

CNC(=O)c1ccccc1Sc1ccc2c(/C=C/c3ccccn3)n[nH]c2c1 [Axitinib]
RP2D (Japan) [1]: 5 mg BID | AUC0-24 ([2]; Day 1): 142 ng·h/mL | Cmax ([2]; Day 1): 17.0 ng/mL | T1/2 ([2]; Day 1): 4.8 h | Tmax ([2]; Day 1): 4.10 h | AUC0-24 ([2]; Day 15): 138 ng·h/mL | Cmax ([2]; Day 15): 21.4 ng/mL | T1/2 ([2]; Day 15): 4.04 h | Tmax ([2]; Day 15): 1.37 h | MTD [3]: 5 mg BID | AUC0-24 [4, 6]: 188 ng·h/mL | Cmax [4, 6]: 22 ng/mL | T1/2 [4, 6]: 2.3 h | Tmax [4, 6]: 3.2 h | AUC0-24 [4, 8]: 258 ng·h/mL | Cmax [4, 8]: 27 ng/mL | T1/2 [4, 8]: 2.3 h | Tmax [4, 8]: 2.4 h | RP2D (Western) [5]: 5 mg BID

Cc1cc(Nc2ncc(Cl)c(Nc3ccccc3S(=O)(=O)C(C)C)n2)c(OC(C)C)cc1C1CCNCC1 [Ceritinib]
RP2D (Japan) [1]: 750 mg QD | AUC0-24 ([2]; Day 8): 25700 ng·h/mL | Cmax ([2]; Day 8): 1220 ng/mL | Tmax ([2]; Day 8): 6.96 h | MTD [3]: 750 mg QD | AUC0-24 [4, 9]: 16,500±4750 ng·h/mL | Cmax [4, 9]: 800 ± 205 ng/mL | T1/2 [4, 9]: 41 h | Tmax [4, 9]: 4 to 6 h | RP2D (Western) [5]: 750 mg QD

C[C@@H](Oc1cc(-c2cnn(C3CCNCC3)c2)cnc1N)c1c(Cl)ccc(F)c1Cl [Crizotonib]
RP2D (Japan) [1]: 250 mg BID | RP2D (Western) [5]: 250 mg BID

C#Cc1cccc(Nc2ncnc3cc(OCCOC)c(OCCOC)cc23)c1 [Erlotinib]
RP2D (Japan) [1]: 150 mg QD | Cmax ([2]; Day 1): 958 ± 457.19 ng/mL | T1/2 ([2]; Day 1): 25.92 ± 9.31 h | Tmax ([2]; Day 1): 6.00 ± 8.92 h | Cmax ([2]; Day 23 or 24): 2384.33 ± 932.43 ng/mL | T1/2 ([2]; Day 23 or 24): 27.19 ± 9.07 h | Tmax ([2]; Day 23 or 24): 1.83 ± 0.41 h | MTD [3]: 150 mg QD | AUC0-24 [4, 6]: 16510 ± 11020 ng·h/mL | Cmax [4, 6]: 1136 ± 865 ng/mL | T1/2 [4, 6]: 20 ± 9.74 h | AUC0-24 [4, 10]: 38420 ± 29550 ng·h/mL | Cmax [4, 10]: 2120 ± 1520 ng/mL | T1/2 [4, 10]: 18.18 ± 5.74 h | RP2D (Western) [5]: 150 mg QD

CO[C@H]1C[C@@H]2CC[C@@H](C)[C@@](O)(O2)C(=O)C(=O)N2CCCC[C@H]2C(=O)O[C@H]([C@H](C)C[C@@H]2CC[C@@H](OCCO)[C@H](OC)C2)CC(=O)[C@H](C)/C=C(\C)[C@@H](O)[C@@H](OC)C(=O)[C@H](C)C[C@H](C)/C=C/C=C/C=C/1C [Everolimus]
RP2D (Japan) [1]: 10 mg QD

CS(=O)(=O)CCNCc1ccc(-c2ccc3ncnc(Nc4ccc(OCc5cccc(F)c5)c(Cl)c4)c3c2)o1 [Lapatinib]
RP2D (Japan) [1]: 1500 mg QD | RP2D (Western) [5]: 1250 mg QD

COc1cc2nccc(Oc3ccc(NC(=O)NC4CC4)c(Cl)c3)c2cc1C(N)=O [Lenvatinib]
AUC0-24 ([2]; Day 1): 3150 ng·h/mL | Cmax ([2]; Day 1): 418 ng/mL | AUC0-24 ([2]; Day 15): 4140 ng·h/mL | Cmax ([2]; Day 15): 518 ng/mL | Tmax ([2]; Day 15): 2.0 h | AUC0-24 [4, 6]: 3913.8 ng·h/mL | Cmax [4, 6]: 598.0 ng/mL | T1/2 [4, 6]: 5.3 h | Tmax [4, 6]: 1.5 h | AUC0-24 [4, 7]: 4783.0 ng·h/mL | Cmax [4, 7]: 579.1 ng/mL | T1/2 [4, 7]: 5.8 h | Tmax [4, 7]: 2.8 h

Cc1ccc(Nc2nccc(N(C)c3ccc4c(C)n(C)nc4c3)n2)cc1S(N)(=O)=O [Pazopanib]
RP2D (Western) [5]: 800 mg QD

CNC(=O)c1cc(Oc2ccc(NC(=O)Nc3ccc(Cl)c(C(F)(F)F)c3)c(F)c2)ccn1 [Regorafenib]
RP2D (Japan) [1]: 160 mg QD | MTD [3]: 160 mg QD | AUC0-24 [4, 11]: 58270 ng·h/mL | Cmax [4, 11]: 3904 ng/mL | T1/2 [4, 11]: 22.23 h | Tmax [4, 11]: 5.033 h | RP2D (Western) [5]: 160 mg QD

CNC(=O)c1cc(Oc2ccc(NC(=O)Nc3ccc(Cl)c(C(F)(F)F)c3)cc2)ccn1 [Sorafenib]
RP2D (Japan) [1]: 400 mg BID | RP2D (Western) [5]: 400 mg BID

CCN(CC)CCNC(=O)c1c(C)[nH]c(/C=C2\C(=O)Nc3ccc(F)cc32)c1C [Sunitinib]
RP2D (Japan) [1]: 50 mg QD | AUC0-24 ([2]; Day 1): 374 ng·h/mL | Cmax ([2]; Day 1): 22.8 ng/mL | Tmax ([2]; Day 1): 7 h | AUC0-24 ([2]; Day 28): 1406 ng·h/mL | Cmax ([2]; Day 28): 69.3 ng/mL | Tmax ([2]; Day 28): 6 h | MTD [3]: 50 mg QD | AUC0-24 [4, 6]: 420 ng·h/mL | Tmax [4, 6]: 5.0 h | AUC0-24 [4, 7]: 1296 ng·h/mL | Tmax [4, 7]: 8.5 h | RP2D (Western) [5]: 50 mg QD

COc1cc2c(Nc3ccc(Br)cc3F)ncnc2cc1OCC1CCN(C)CC1 [Vandetanib]
RP2D (Japan) [1]: 300 mg QD | RP2D (Western) [5]: 300 mg QD

CCCS(=O)(=O)Nc1ccc(F)c(C(=O)c2c[nH]c3ncc(-c4ccc(Cl)cc4)cc23)c1F [Vemurafenib]
RP2D (Japan) [1]: 960 mg BID | T1/2 ([2]; Day 1): 12.7 h | T1/2 ([2]; Day 15): 60.8 h | MTD [3]: 960 mg BID | Cmax [4, 8]: 61400 ng/mL | T1/2 [4, 8]: 34.1 h | Cmax ([4]; in vivo): 4800 ng/mL | Tmax ([4]; in vivo): 5.0 h | RP2D (Western) [5]: 960 mg BID
